In test [1] the target is T1, HiBit-BRG1 fusion protein (Homo sapiens, UniProt P51532).
T1 construct: expressed in transfected cells
The test can be described thus: HiBiT-BRG1 cell-based degradation assay (Nano-Glo HiBiT Lytic Detection, 24 h). Conditions: HeLa cell line expressing HiBit-BRG1 and LgBit; for Dmax: read-out: BRG1 HiBit Degradation Maximum (%); for DC50: read-out: BRMG1 HiBit Degradation IC50. On the procedure: Procedure: A stable HeLa cell line expressing HiBiT-BRM was generated. On day 0, 5000 cells were seeded in 40 μL of media into each well of 384-well cell culture plates. […] Subsequently plates were incubated for 24 h in a standard tissue culture incubator and equilibrated at room temperature for 15 minutes. Nano-Glo HiBiT Lytic Detection System (Promega N3050) reagent was freshly prepared and 20 ul was added to each well. Upon addition of this LgBit-containing reagent, the HiBiT and LgBiT proteins associate to form the luminescent NanoBiT luciferase. The plates were shaken for 10 minutes at room temperature and the bioluminescence read using an EnVision plate reader (PerkinElmer).
For measurement of BRG1 degradation, a stable HeLa cell line expressing HiBit-BRG1 and LgBit was generated. The same protocol as above was then followed.
(§1) The degradation % was calculated using the following formula: % degradation=100%−100%×(LumSample−LumLC)/(LumHC−LumLC). DMSO treated cells are employed as High Control (HC) and 2 μM of a known BRM/BRG1 degrader standard treated cells are employed as Low Control (LC).

A further test addresses T2, HiBit-BRM fusion protein (Homo sapiens, UniProt P51531).
T2 construct: expressed in transfected cells
In words: HiBiT-BRM cell-based degradation assay (Nano-Glo HiBiT Lytic Detection, 24 h). Conditions: HeLa cell line expressing HiBiT-BRM; for DC50: read-out: BRM HiBit Degradation IC50. As to the method: Procedure: A stable HeLa cell line expressing HiBiT-BRM was generated. On day 0, 5000 cells were seeded in 40 μL of media into each well of 384-well cell culture plates. On day 1, cells were treated with 120 nL DMSO or 120 nL of 3-fold serially DMSO-diluted compounds (10 points in duplicate with 30 μM as final top dose). Subsequently plates were incubated for 24 h in a standard tissue culture incubator and equilibrated at room temperature for 15 minutes. Nano-Glo HiBiT Lytic Detection System (Promega N3050) reagent was freshly prepared and 20 ul was added to each well. Upon addition of this LgBit-containing reagent, the HiBiT and LgBiT proteins associate to form the luminescent NanoBiT luciferase. The plates were shaken for 10 minutes at room temperature and the bioluminescence read using an EnVision plate reader (PerkinElmer).
as §1

The results in this text go back to patent publication US20240024488A1, “COMPOUNDS AND USES THEREOF” (Foghorn Therapeutics Inc., priority 2020, published 2024).

T2 sequence (P51531 whole entry, the tested form may be a part): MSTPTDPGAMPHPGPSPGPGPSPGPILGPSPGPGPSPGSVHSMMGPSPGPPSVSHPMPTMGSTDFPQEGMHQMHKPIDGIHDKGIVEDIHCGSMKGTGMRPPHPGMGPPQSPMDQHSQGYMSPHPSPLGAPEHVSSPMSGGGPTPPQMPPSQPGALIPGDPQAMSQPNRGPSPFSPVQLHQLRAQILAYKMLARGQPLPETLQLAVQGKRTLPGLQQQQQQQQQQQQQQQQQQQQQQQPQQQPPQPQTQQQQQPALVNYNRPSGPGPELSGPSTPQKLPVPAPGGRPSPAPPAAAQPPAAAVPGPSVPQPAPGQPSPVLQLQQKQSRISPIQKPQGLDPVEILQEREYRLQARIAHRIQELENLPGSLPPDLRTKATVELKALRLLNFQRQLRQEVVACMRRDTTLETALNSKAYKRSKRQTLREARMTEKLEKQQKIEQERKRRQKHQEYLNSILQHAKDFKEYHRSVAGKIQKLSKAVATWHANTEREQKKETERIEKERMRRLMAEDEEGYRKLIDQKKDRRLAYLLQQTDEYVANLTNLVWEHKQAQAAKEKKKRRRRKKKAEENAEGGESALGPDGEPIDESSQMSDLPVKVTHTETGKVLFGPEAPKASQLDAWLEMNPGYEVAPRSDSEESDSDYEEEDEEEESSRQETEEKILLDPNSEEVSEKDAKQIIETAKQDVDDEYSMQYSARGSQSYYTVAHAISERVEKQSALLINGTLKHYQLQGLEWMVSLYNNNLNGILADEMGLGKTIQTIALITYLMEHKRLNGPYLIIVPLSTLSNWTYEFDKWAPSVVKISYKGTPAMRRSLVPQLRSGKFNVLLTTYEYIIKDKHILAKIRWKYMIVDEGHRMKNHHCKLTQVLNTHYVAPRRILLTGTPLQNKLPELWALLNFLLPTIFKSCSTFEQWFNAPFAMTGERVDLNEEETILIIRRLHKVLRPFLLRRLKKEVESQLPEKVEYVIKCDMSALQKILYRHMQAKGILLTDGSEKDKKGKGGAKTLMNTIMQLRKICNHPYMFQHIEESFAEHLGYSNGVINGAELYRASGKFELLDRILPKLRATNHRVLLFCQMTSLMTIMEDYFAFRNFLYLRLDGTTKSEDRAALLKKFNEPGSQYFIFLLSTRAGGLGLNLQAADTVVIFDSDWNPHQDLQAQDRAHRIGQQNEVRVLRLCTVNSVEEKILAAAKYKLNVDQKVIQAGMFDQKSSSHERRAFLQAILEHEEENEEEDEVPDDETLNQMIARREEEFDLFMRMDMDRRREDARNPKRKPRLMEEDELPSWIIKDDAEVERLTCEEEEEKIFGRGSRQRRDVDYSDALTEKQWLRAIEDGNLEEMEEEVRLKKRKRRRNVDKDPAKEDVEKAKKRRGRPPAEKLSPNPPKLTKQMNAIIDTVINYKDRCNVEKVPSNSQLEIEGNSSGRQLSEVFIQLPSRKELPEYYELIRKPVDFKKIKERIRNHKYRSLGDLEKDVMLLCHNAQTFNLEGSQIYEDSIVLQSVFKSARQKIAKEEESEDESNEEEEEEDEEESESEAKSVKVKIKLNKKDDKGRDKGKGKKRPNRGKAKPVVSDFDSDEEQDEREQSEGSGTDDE
T1 sequence (P51532 whole entry, the tested form may be a part): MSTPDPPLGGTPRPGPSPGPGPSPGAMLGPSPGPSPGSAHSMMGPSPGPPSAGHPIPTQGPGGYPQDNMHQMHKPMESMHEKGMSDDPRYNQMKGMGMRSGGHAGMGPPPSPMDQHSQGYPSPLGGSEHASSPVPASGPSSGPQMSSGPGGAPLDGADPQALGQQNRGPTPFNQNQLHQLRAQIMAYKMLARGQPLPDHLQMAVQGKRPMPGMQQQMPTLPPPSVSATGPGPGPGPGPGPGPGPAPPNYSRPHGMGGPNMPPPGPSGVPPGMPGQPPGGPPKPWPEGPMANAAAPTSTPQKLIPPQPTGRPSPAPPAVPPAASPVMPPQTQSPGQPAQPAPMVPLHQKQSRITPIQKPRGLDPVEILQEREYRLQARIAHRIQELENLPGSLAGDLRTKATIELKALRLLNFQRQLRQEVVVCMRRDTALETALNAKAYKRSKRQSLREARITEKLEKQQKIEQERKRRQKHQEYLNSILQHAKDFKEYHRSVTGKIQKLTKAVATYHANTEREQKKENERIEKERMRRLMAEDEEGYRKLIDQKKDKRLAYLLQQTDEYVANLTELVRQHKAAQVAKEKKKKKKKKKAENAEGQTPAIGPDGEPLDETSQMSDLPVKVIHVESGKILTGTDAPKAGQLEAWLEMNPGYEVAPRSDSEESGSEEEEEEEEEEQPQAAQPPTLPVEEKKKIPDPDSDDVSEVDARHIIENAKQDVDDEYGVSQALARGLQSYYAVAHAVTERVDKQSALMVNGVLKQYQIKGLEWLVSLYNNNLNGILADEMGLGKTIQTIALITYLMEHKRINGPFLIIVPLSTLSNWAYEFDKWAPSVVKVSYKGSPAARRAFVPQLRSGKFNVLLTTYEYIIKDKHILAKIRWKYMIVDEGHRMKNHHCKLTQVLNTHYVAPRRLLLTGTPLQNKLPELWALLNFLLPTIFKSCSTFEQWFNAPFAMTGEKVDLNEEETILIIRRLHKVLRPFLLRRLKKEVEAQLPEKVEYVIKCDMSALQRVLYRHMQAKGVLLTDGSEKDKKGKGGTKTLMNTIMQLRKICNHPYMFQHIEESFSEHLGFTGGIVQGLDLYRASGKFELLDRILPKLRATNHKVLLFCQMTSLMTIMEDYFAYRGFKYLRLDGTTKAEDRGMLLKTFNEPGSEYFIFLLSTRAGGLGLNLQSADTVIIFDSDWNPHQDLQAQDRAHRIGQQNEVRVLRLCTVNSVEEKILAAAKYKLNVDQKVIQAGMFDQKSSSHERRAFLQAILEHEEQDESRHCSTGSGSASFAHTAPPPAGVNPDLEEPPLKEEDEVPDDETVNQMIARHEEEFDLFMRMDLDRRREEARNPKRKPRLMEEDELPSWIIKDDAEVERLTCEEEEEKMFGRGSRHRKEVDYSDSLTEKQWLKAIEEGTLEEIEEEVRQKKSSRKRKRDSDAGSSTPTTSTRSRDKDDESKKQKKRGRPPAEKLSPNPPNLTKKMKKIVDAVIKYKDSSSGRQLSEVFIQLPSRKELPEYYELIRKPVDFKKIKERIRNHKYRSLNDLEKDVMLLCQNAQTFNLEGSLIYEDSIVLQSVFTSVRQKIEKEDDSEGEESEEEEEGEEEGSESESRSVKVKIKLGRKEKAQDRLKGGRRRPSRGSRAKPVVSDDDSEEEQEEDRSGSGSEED

Consider `Cc1ncsc1-c1ccc([C@H](C)NC(=O)[C@@H]2C[C@@H](O)CN2C(=O)[C@@H](c2cc(OCCN3CC(CCCc4cc5cc(-c6ccccc6O)nnc5[nH]4)C3)no2)C(C)C)cc1` (racemic) [Compound 243, (2S,4R)-4-hydroxy-1-[(2R)-2-{3-[2-(3-{3-[3-(2-hydroxyphenyl)-7H-pyrrolo[2,3-c]pyridazin-6-yl]propyl}azetidin-1-yl)ethoxy]-1,2-oxazol-5-yl}-3-methylbutanoyl]-N-[(1S)-1-[4-(4-methyl-1,3-thiazol-5-yl)phenyl]ethyl]pyrrolidine-2-carboxamide], for which, in test [1], the Dmax is above 50% and the DC50 is above 1000 nM. Further, at HiBit-BRM fusion protein, the “BRM HiBit Degradation Maximum (%)” value is “A (“A” indicates maximum degradation ≥ 75%)” and the DC50 was above 100 nM.
Taken in the same sequence, the figures for `Cc1ncsc1-c1ccc([C@H](C)NC(=O)[C@@H]2C[C@@H](O)CN2C(=O)[C@@H](c2cc(C3CN(C(=O)[C@H]4CCc5[nH]c6nnc(-c7ccccc7O)cc6c5C4)C3)no2)C(C)C)cc1` (relative stereo) [Compound 157, (2S,4R)-4-hydroxy-1-[(2R*)-2-(3-{1-[(6R**)-3-(2-hydroxyphenyl)-5H,6H,7H,8H,9H-pyridazino[3,4-b]indole-6-carbonyl]azetidin-3-yl}-1,2-oxazol-5-yl)-3-methylbutanoyl]-N-[(1S)-1-[4-(4-methyl-1,3-thiazol-5-yl)phenyl]ethyl]pyrrolidine-2-carboxamide] were above 75%, above 100 nM, “A (“A” indicates maximum degradation ≥ 75%)” and above 100 nM.
Consider `Cc1ncsc1-c1ccc([C@H](C)NC(=O)[C@@H]2C[C@@H](O)CN2C(=O)[C@@H](c2cc(N3CCN(C(=O)C(=O)N4CC(c5c[nH]c6nnc(-c7ccccc7O)cc56)C4)CC3)no2)C(C)C)cc1` (racemic) [Compound 267, (2S,4R)-4-hydroxy-1-((R)-2-(3-(4-(2-(3-(3-(2-hydroxyphenyl)-7H-pyrrolo[2,3-c]pyridazin-5-yl)azetidin-1-yl)-2-oxoacetyl)piperazin-1-yl)isoxazol-5-yl)-3-methylbutanoyl)-N-((S)-1-(4-(4-methylthiazol-5-yl)phenyl)ethyl)pyrrolidine-2-carboxamide], for which the Dmax in test [1] is below 50%. For the same compound, at HiBit-BRM fusion protein, the “BRM HiBit Degradation Maximum (%)” value is reported as “A (“A” indicates maximum degradation ≥ 75%)” and the DC50 was above 100 nM.
For `Cc1ncsc1-c1ccc([C@H](C)NC(=O)[C@@H]2C[C@@H](O)CN2C(=O)[C@@H](c2cc(N3CCN(CC(=O)N4CC(c5cc6cc(-c7ccccc7O)nnc6[nH]5)C4)CC3)no2)C(C)C)cc1` (racemic) [Compound 263, (2S,4R)-4-hydroxy-1-((R)-2-(3-(4-(2-(3-(3-(2-hydroxyphenyl)-7H-pyrrolo[2,3-c]pyridazin-6-yl)azetidin-1-yl)-2-oxoethyl)piperazin-1-yl)isoxazol-5-yl)-3-methylbutanoyl)-N-((S)-1-(4-(4-methylthiazol-5-yl)phenyl)ethyl)pyrrolidine-2-carboxamide], in test [1], the Dmax is above 75% and the DC50 was above 1000 nM. Also, at HiBit-BRM fusion protein, the “BRM HiBit Degradation Maximum (%)” value is given as “A (“A” indicates maximum degradation ≥ 75%)” and the DC50 is above 100 nM.
Taken in the same sequence, the figures for `Cc1ncsc1-c1ccc([C@H](C)NC(=O)[C@@H]2C[C@@H](O)CN2C(=O)[C@@H](c2cc(OCCNCc3ccc(Cc4cc5cc(-c6ccccc6O)nnc5[nH]4)cc3)no2)C(C)C)cc1` (racemic) [Compound 295] were above 75%, above 100 nM, “A (“A” indicates maximum degradation ≥ 75%)” and above 10 nM.
Taken in the same sequence, the figures for `Cc1ncsc1-c1ccc([C@H](C)NC(=O)[C@@H]2C[C@@H](O)CN2C(=O)[C@@H](c2cc(C3CCN(C(=O)[C@H]4C[C@]5(Cc6cc(-c7ccccc7O)nnc6N5)C4)CC3)no2)C(C)C)cc1` (racemic) [Compound 75, (2S,4R)-4-hydroxy-1-((R)-2-(3-(1-((1S,3r)-3′-(2-hydroxyphenyl)-5′,7′-dihydrospiro[cyclobutane-1,6′-pyrrolo[2,3-c]pyridazine]-3-carbonyl)piperidin-4-yl)isoxazol-5-yl)-3-methylbutanoyl)-N-((S)-1-(4-(4-methylthiazol-5-yl)phenyl)ethyl)pyrrolidine-2-carboxamide] were above 50%, above 100 nM, “A (“A” indicates maximum degradation ≥ 75%)” and above 10 nM.
Taken in the same sequence, the figures for `Cc1ncsc1-c1ccc([C@H](C)NC(=O)[C@@H]2C[C@@H](O)CN2C(=O)[C@@H](c2cc(-c3cnc(N4CCc5[nH]c6nnc(-c7ccccc7O)cc6c5C4)nc3)no2)C(C)C)cc1` (single isomer, unassigned) [Compound 85] were above 75%, above 100 nM, “A (“A” indicates maximum degradation ≥ 75%)” and above 10 nM.
On to `Cc1ncsc1-c1ccc([C@H](C)NC(=O)[C@@H]2C[C@@H](O)CN2C(=O)[C@@H](c2cc(OCCN3C[C@@H]4[C@H](C3)[C@H]4c3[nH]c4nnc(-c5cccc(F)c5O)cc4c3C)no2)C(C)C)cc1` (racemic) [Compound 126, (2S,4R)-1-((R)-2-(3-(2-((1R,5S,6R)-6-(3-(3-fluoro-2-hydroxyphenyl)-5-methyl-7H-pyrrolo[2,3-c]pyridazin-6-yl)-3-azabicyclo[3.1.0]hexan-3-yl)ethoxy)isoxazol-5-yl)-3-methylbutanoyl)-4-hydroxy-N-((S)-1-(4-(4-methylthiazol-5-yl)phenyl)ethyl)pyrrolidine-2-carboxamide], for which, in test [1], the Dmax was above 50% and the DC50 is above 100 nM. In addition, on HiBit-BRM fusion protein, the “BRM HiBit Degradation Maximum (%)” value is “A (“A” indicates maximum degradation ≥ 75%)” and the DC50 is above 10 nM.
On to `Cc1ncsc1-c1ccc(CNC(=O)[C@@H]2C[C@@H](O)CN2C(=O)[C@@H](NC(=O)CNC(=O)[C@H]2CCc3[nH]c4nnc(-c5ccccc5O)cc4c3C2)C(C)(C)C)cc1` (single isomer, unassigned) [Compound 191], for which, in test [1], the Dmax was below 50%. In addition, the “BRM HiBit Degradation Maximum (%)” value at HiBit-BRM fusion protein is listed as “C (“C” indicates maximum degradation < 50%)”.
Taken in the same sequence, the figures for `Cc1ncsc1-c1ccc(CNC(=O)[C@@H]2C[C@@H](O)CN2C(=O)[C@@H](NC(=O)CCCNC(=O)[C@H]2CCc3[nH]c4nnc(-c5ccccc5O)cc4c3C2)C(C)(C)C)cc1` (single isomer, unassigned) [Compound 190] were below 50% and “C (“C” indicates maximum degradation < 50%)”.
On to `Cc1ncsc1-c1ccc([C@H](C)NC(=O)[C@@H]2C[C@@H](O)CN2C(=O)[C@@H](c2cc(OCCN3CC(c4[nH]c5nnc(-c6cc(F)cc(Cl)c6O)cc5c4C)C3)no2)C(C)C)cc1` (racemic) [Compound 129, (2S,4R)-1-((R)-2-(3-(2-(3-(3-(3-chloro-5-fluoro-2-hydroxyphenyl)-5-methyl-7H-pyrrolo[2,3-c]pyridazin-6-yl)azetidin-1-yl)ethoxy)isoxazol-5-yl)-3-methylbutanoyl)-4-hydroxy-N-((S)-1-(4-(4-methylthiazol-5-yl)phenyl)ethyl)pyrrolidine-2-carboxamide], for which, in test [1], the Dmax was above 50% and the DC50 was above 100 nM. Moreover, on HiBit-BRM fusion protein, the “BRM HiBit Degradation Maximum (%)” value is on record as “A (“A” indicates maximum degradation ≥ 75%)” and the DC50 is above 10 nM.
Regarding `Cc1ncsc1-c1ccc([C@H](C)NC(=O)[C@@H]2C[C@@H](O)CN2C(=O)[C@@H](c2cc(OCCN(C)[C@@H]3CCc4[nH]c5nnc(-c6ccccc6O)cc5c4C3)no2)C(C)C)cc1` [Compound 156, (2S,4R)-4-hydroxy-1-((R)-2-(3-(2-(((R)-3-(2-hydroxyphenyl)-6,7,8,9-tetrahydro-5H-pyridazino[3,4-b]indol-6-yl)(methyl)amino)ethoxy)isoxazol-5-yl)-3-methylbutanoyl)-N-((S)-1-(4-(4-methylthiazol-5-yl)phenyl)ethyl)pyrrolidine-2-carboxamide], the Dmax in test [1] is below 50%. At HiBit-BRM fusion protein, the “BRM HiBit Degradation Maximum (%)” value is recorded as “A (“A” indicates maximum degradation ≥ 75%)” and the DC50 was above 10 nM.
